Test results as given in patent publication US20210106566A1, “PHARMACEUTICAL COMPOSITION FOR TREATING AND/OR PREVENTING PERIPHERAL NEUROPATHY OR SPINAL CORD INJURY” (NATIONAL UNIVERSITY CORPORATION NAGOYA UNIVERSITY, priority 2015, published 2021).

What was measured:
[1] = test system: mouse sciatic nerve autologous transplantation model; assay: Mouse sciatic nerve autologous transplantation model: number and area of myelinated axons; format: in vivo; details: 30 mg/kg/day to the stomach, one week after surgery, section 0.7 mm distal to the distal transection site
Text: Adult male C57BL/6J mice (8 weeks old; 19.5-22.0 g) were purchased from Charles River. The mice were anesthetized with isoflurane and underwent gluteal muscle incision under a sterile condition to expose the sciatic nerve in the left leg. The sciatic nerve was cut at the following two sites (1) and (2): (1) the site 3 mm distal to the first bifurcation of biceps femoris (hereinafter referred to as proximal transection site) (2) the site 3 mm distal to the proximal transection site (hereinafter referred to as distal transection site) The excised nerve segment with a length of 3 mm was confirmed to be completely cut at the two sites. The perineurium was sutured with nylon thread (10-0 black) at the proximal transection site and the distal transection site under a microscope. The remaining thread was used as a marker for finding the nerve transection site in the sacrifice of the mice. In order to reduce DMSO toxicity, a solution of 60 mg/mL zonisamide in 100% DMSO was prepared and the solution was diluted in olive oil to give a solution of 3 mg/mL zonisamide in 5% DMSO. […] Myelin sheath formation in the sciatic nerve was analyzed in six mice in each group. […] The number and area of myelinated axons in the sciatic nerve were manually measured using ImageJ software in a blinded fashion.

primary motor neurons = assay: MTS assay of cell survival under oxidative stress (hydrogen peroxide); format: cell-based, mouse; details: zonisamide 1 hour before 100 μmol/L hydrogen peroxide for 24 hours; dose-dependent
Method: Cell survival rate was assessed by MTS assay (CellTiter 96 Aqueous One Solution Cell Proliferation Assay, Promega), which measured the activity of mitochondrial reductase. Primary cultured motor neurons were cultured in Sumilon neuron culture medium for 24 hours, and the medium was then exchanged to DMEM/F12 supplemented with 0.5% FBS and cultured for 24 hours. Zonisamide was added at various concentrations for 1 hour and 100 μmol/L hydrogen peroxide was then added for 24 hours. The cells were incubated with MTS reagent for 2 hours. MTS signal was quantified on a microplate reader (PowerScan HT, DS PharmaBiomedical). The group of cells treated without hydrogen peroxide was used as a control for evaluating MTS signal.

[2] = test system: Bdnf, Ngf, Ntf4, Ntrk1, Ntrk2, Map2, Mapt, and Gap43; assay: Severely crushed spinal cord model mice: mRNA in spinal cord segments; format: in vivo, mouse; details: spinal cord segment distal to the damaged area, 28 days after surgery, versus control group
Text: Severely crushed spinal cord model mice were produced according to the “Method of producing severely crushed spinal cord model mice” as described in Example 8. Spinal cords were isolated from four mice in the zonisamide administration group and four mice in the control group 28 days after surgery and the segment of the damaged area with a length of 5 mm and the segment with a length of 5 mm distal to the damaged area were collected (FIG. 16). Total RNA was isolated using Trizol (Thermo Fisher Scientific) from each spinal cord segment with a length of 5 mm. Single-stranded cDNA was synthesized using ReverTra Ace (Toyobo). The mRNA expression levels of neurotrophic factors, Bdnf, Ngf, Ntf4, Ntrk1, Ntrk2, Map2, Mapt, and Gap43 were quantified using LightCycler 480 Real-Time PCR (Roche) and SYBR Green (Takara) (FIGS. 17, 18, 19, 20, 21, 22, 23, and 24). The mRNA levels were normalized with the expression level of GAPDH.

Compound: NS(=O)(=O)Cc1noc2ccccc12 [Zonisamide, 3-sulfamoylmethyl-1,2-benzisoxazole]
- area of axons, increase compared to the zonisamide non-administration group [1]: 3.9 fold
- number of axons [1]: unchanged
- number of living cells (MTS signal) (primary motor neurons): significantly increased
- expression level of MAP2 gene [2]: significantly increased
- expression level of NGF [2]: seemed to be increased
- expression level of Tau gene [2]: significantly increased
